Each substance was assayed on IgE antibodies from patients (assay: Epitope mapping (2) overlapping (10-amino-acid peptides) and (3) alanine scanning on peptide arrays). Details: overlapping peptides with flanking sequence.
Type: binding, human
Protocol: On the basis of the sequences (SEQ ID NOs: 272-295 for vitellogenin-2 precursor, SEQ ID NOs: 296-303 for vitellogenin-3, SEQ ID NOs: 304-311 for apolipoprotein B precursor, and SEQ ID NOs: 312-318 for vitellogenin-1 or lipovitellin-1) of the peptides bound to an IgE antibody in serum in a patient-specific manner as described above in (A), a library of overlapping peptide fragments (length: 10 amino acids) was prepared using the sequences of the peptides and sequences in which sequences were added so as to flank each peptide in the amino acid sequences of allergen components (amino acid sequences of SEQ ID NO: 59, 106 or 262 for vitellogenin-2 precursor, SEQ ID NO: 2, 13 or 47 for vitellogenin-3, SEQ ID NO: 152, 237 or 251 for apolipoprotein B, and SEQ ID NO: 18 for vitellogenin-1 or lipovitellin-1) comprising the sequences of the peptide to carry out epitope mapping.
The peptides to be synthesized were shifted by one amino acid.
The library was prepared by the same procedure as described above in (A), and the presence or absence of binding of an IgE antibody present in the serum of a patient and a non-egg-allergic subject to each peptide fragment was measured by the same technique as described above. Amino acids at positions where the binding activity against IgE antibodies from patients were lost or decreased in the peptides shifted by one amino acid while binding activity against IgE antibodies from non-egg-allergic subjects arose were confirmed as amino acids adversely affecting the specificity of binding to IgE antibodies.
Chemiluminescence intensity in images obtained by measurement was converted into a numeric value in the same manner as in (A) using ImageQuant TL (GE Healthcare). Numeric values determined from images obtained as a result of using only anti-human IgE antibody-HRP antibody without carrying out the procedures (2) and (3) described above in the subsection titled (3) Spotting of cellulose-bound peptide solution were […] numeric values determined from images obtained from results about the serum of 6 patients. It was determined that a peptide having the resulting value larger than 0 had no binding activity against IgE antibodies when having less than 20% of values obtained using the sequences (amino acid sequences of SEQ ID NO: 59, 106 or 262 for vitellogenin-2, SEQ ID NO: 2, 13 or 47 for vitellogenin-3, SEQ ID NO: 152, 237 or 251 for apolipoprotein B, and SEQ ID NO: 18 for vitellogenin-1 or lipovitellin-1) serving as the basis of overlapping, had binding activity, albeit poor, against IgE antibodies when having 20% or more and less than 50% thereof, had binding activity, albeit somewhat poor, against IgE antibodies when having 50% or more and less than 70% thereof, had almost equivalent binding activity against IgE antibodies when having 70% or more and less than 90% thereof, and had equivalent or good binding activity against IgE antibodies and thus had remaining binding activity against IgE antibodies when having 90% or more thereof.
From the amino acid sequences identified above in (A), a library of peptide fragments in which N-terminal amino acids were substituted one by one by alanine according to a technique called alanine scanning (Non Patent Literature 1) was prepared by the same technique as described above. The presence or absence of binding of an IgE antibody present in the serum of a patient and a non-egg-allergic subject to each peptide fragment was measured by the same technique as described above. Amino acids at positions where the binding activity against IgE antibodies from patients were lost or decreased by the substitution by alanine while binding activity against IgE antibodies from non-egg-allergic subjects arose were confirmed as amino acids important for exertion of original antigenicity, or amino acids influencing exertion of original antigenicity.

Substance | binding to IgE antibodies from patients, sequence comprising a region amino-terminally adjacent to the epitope | binding to IgE antibodies from patients, sequence comprising a region carboxy-terminally adjacent to the epitope
SEQ ID NO: 556: sequence comprising a region carboxy-terminally adjacent to epitope 33 (NWAENLNQFI; epitope) | – | binding to IgE antibodies from patients
SEQ ID NO: 319: sequence comprising a region amino-terminally adjacent to epitope 1 (LKVRSPQVEE; epitope) | binding to IgE antibodies from patients | –
SEQ ID NO: 672: sequence comprising a region amino-terminally adjacent to epitope 47 (MSFKPVYSDV; epitope) | binding to IgE antibodies from patients | –
SEQ ID NO: 324: sequence comprising a region amino-terminally adjacent to epitope 2 (MFQMTIKKS; epitope) | binding to IgE antibodies from patients | –
SEQ ID NO: 503: sequence comprising a region amino-terminally adjacent to epitope 21 (GFALAAPGHG; epitope) | binding to IgE antibodies from patients | –
SEQ ID NO: 595: sequence comprising a region carboxy-terminally adjacent to epitope 37 (AKVAVKLHQK; epitope) | – | binding to IgE antibodies from patients
SEQ ID NO: 471: sequence comprising a region amino-terminally adjacent to epitope 20 (GEATNLKAIN; epitope) | binding to IgE antibodies from patients | –

Second part, the substance after the results:

binding to IgE antibodies from patients, sequence comprising a region amino-terminally adjacent to the epitope | binding to IgE antibodies from patients, sequence comprising a region carboxy-terminally adjacent to the epitope | Substance
binding to IgE antibodies from patients | – | SEQ ID NO: 644: sequence comprising a region amino-terminally adjacent to epitope 42 (QELLFGRL; epitope)
– | binding to IgE antibodies from patients | SEQ ID NO: 466: sequence comprising a region carboxy-terminally adjacent to epitope 19 (FNYSMPANCY; epitope)
– | binding to IgE antibodies from patients | SEQ ID NO: 557: sequence comprising a region carboxy-terminally adjacent to epitope 33 (AENLNQFIET; epitope)
– | binding to IgE antibodies from patients | SEQ ID NO: 665: sequence comprising a region carboxy-terminally adjacent to epitope 46 (SDSASGET; epitope)

Same assay, conditions: procedures (B) overlapping and (C) alanine scanning

Substance | region within the epitope important for binding to IgE antibodies from patients
SEQ ID NO: 539: region in epitope 27 (CGICGKYDA; epitope) | important for binding
SEQ ID NO: 674: region in epitope 47 (YSDVPIEK; epitope) | important for binding
SEQ ID NO: 339: region in epitope 4 (ALKKIAWKDP; epitope) | important for binding
SEQ ID NO: 505: region in epitope 21 (AAPGHGID; epitope) | important for binding
SEQ ID NO: 617: region in epitope 39 (LLDR; epitope) | important for binding

Now from value to substance:

region within the epitope important for binding to IgE antibodies from patients | Substance
important for binding | SEQ ID NO: 335: region in epitope 3 (KMKLALKCIG; epitope)
important for binding | SEQ ID NO: 323: region in epitope 1 (VEEYNG; epitope)
important for binding | SEQ ID NO: 366: region in epitope 6 (SPRTMFPSAI; epitope)

— patent publication US20230190924A1, “ANTIGEN OF ALLERGY AND EPITOPE THEREOF” (HOYU CO., LTD., priority 2017, published 2023)
